{
  "source": "patent US20260042799A1",
  "about": "“APPLICATION OF PEPTIDE IN PREPARING DRUGS FOR TREATING AND/OR PREVENTING COGNITIVE IMPAIRMENT” (HUAZHONG UNIVERSITY OF SCIENCE AND TECHNOLOGY, priority 2024, published 2026)",
  "key": {"[1]": {"test": "Solubility of the synthesized peptide in water", "format": "physicochemical", "conditions": "white powder", "text": "The sequence of TAT-P6 is shown in SEQ ID NO:3, artificially synthesized by Jiangsu Qiangyao Biotechnology Co., Ltd., and the mass spectrometry analysis is shown in FIG. 1. […] The sequence of TAT-S6 is shown in SEQ ID NO:4, also synthesized by the same company."}, "[2]": {"target": "T1, binding between HA-GluA2 and EGFP-Syn2b (Homo sapiens, UniProt P42262)", "T1 construct": "HA; expressed in transfected cells; host or cells: HEK293T", "T1 sequence (P42262 25-883)": "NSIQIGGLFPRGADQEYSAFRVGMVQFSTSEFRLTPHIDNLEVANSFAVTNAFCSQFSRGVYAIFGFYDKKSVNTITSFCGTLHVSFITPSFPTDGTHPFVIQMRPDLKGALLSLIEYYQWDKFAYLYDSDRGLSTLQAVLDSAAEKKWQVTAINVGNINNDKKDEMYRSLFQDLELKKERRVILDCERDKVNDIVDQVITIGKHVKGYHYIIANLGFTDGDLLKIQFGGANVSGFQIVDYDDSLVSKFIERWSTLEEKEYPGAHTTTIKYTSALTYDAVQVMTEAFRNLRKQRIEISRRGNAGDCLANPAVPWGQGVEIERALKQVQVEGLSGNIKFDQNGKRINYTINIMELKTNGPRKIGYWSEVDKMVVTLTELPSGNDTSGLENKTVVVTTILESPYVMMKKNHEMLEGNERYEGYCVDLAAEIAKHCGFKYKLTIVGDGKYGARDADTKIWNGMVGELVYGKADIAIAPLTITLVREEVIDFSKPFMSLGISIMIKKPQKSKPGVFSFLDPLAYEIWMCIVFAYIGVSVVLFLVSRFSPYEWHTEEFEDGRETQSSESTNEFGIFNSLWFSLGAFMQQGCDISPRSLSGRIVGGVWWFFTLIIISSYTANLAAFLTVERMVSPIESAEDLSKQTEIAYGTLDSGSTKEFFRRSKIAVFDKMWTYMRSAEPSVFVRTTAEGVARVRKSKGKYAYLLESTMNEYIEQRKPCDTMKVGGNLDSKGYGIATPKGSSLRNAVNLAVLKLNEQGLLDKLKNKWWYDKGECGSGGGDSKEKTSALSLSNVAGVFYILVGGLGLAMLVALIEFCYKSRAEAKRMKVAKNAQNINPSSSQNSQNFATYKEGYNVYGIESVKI", "test": "Co-immunoprecipitation/immunoblotting of Syn2b-GluA2 binding in co-transfected HEK293T cells", "format": "cell-based", "conditions": "10 μM peptide in culture medium for 90 minutes, 48 hours after transfection", "description": "First, HA-GluA2 and EGFP-Syn2b overexpression plasmids were transfected into HEK293T cells. After 48 hours of transfection, 10 μM concentration of TAT-P6 and TAT-S6 peptides were given in the cell culture medium for 90 minutes, […] and then cells were collected. The overexpressed Syn2b protein is a fusion protein of Syn2b and GFP, using anti-GFP antibody to precipitate cellular proteins, and then using anti-GluA2 antibody to detect the precipitated proteins, the black imprint on the NC membrane indicates the interaction between GluA2 and Syn2b.\nOpen field experiment: The open field experiment is an experiment in which animals are placed in a closed open metal box area with a length of 80 cm, width of 80 cm, and height of 50 cm to observe mouse activity. This area is divided into squares, and typically the number of squares crossed by mice within a given time is counted to examine the anxiety emotional state and movement ability of the experimental mice. […] Recording is stopped after observing for a certain time, generally about 5 minutes. • 3) Quantify mouse hippocampal related protein content: immunoblotting; • 4) Disrupting the binding of Syn2b and GluA2 in HEK 293T cells: co-immunoprecipitation, immunoblotting. […]"}, "[3]": {"test_system": "P301S mice", "test": "Open field test, P301S mice", "format": "in vivo", "conditions": "C57 and P301S mice, 15 mg/kg subcutaneous, 14 days", "text": "(§1) FIG. 3A to FIG. 3J show the statistical chart of TAT-P6 peptide improving mouse learning memory ability results. FIGS. 3A-B are behavioral experiments for four groups of mice (C57 mice injected with TAT-S6 group, C57 mice injected with TAT-P6 group, P301S mice injected with TAT-S6 group, P301S mice injected with TAT-P6 group) using open field test system.\n(§2) Male P301S mice 6-8 months old (purchased from Jackson Laboratory), C57/BL6 mice 6-8 months old (purchased from Beijing Vital River Laboratory Animal Technology Co., Ltd.), SPF grade, weight 20-25 grams, raised in conventional environment.\nOpen field experiment: The open field experiment is an experiment in which animals are placed in a closed open metal box area with a length of 80 cm, width of 80 cm, and height of 50 cm to observe mouse activity. This area is divided into squares, and typically the number of squares crossed by mice within a given time is counted to examine the anxiety emotional state and movement ability of the experimental mice. […] The experimental area is set up on the computer, the experimental area is divided equally into a “ ? ” shape, with the innermost circle as the central region and the outermost as the peripheral region, then the camera is turned on, the light source is adjusted, and information such as the position, movement route, and distance of the experimental mice is recorded using the computer. […]"}, "[4]": {"test_system": "P301S mice", "test": "Novel object recognition test", "format": "in vivo", "conditions": "15 mg/kg subcutaneous, 14 days", "text": "as §1, §2\n• 1) Mouse spatial memory detection: novel object recognition and water maze; • a) Novel object recognition: Before conducting the novel object recognition test, it is necessary to eliminate unfamiliarity with the mice by petting them daily to prevent stimulation during operation. The first stage is adaptation period. […] Within 5 min (many experiments have proven that after 2 min of familiarization period, animals already show good preference for novel objects, and of course, 3 min of familiarization makes the preference more obvious), the number of times, time, and distance the animal explores each object are measured. […] If the platform is not found within 90 s, the system automatically stops recording, and the latency period is recorded as 90 s. […]"}, "[5]": {"test_system": "P301S mice", "test": "Morris water maze test", "format": "in vivo", "conditions": "detection stage on the 8th day, 15 mg/kg subcutaneous, 14 days", "text": "as §1, §2\n• 1) Mouse spatial memory detection: novel object recognition and water maze; • a) Novel object recognition: Before conducting the novel object recognition test, it is necessary to eliminate unfamiliarity with the mice by petting them daily to prevent stimulation during operation. The first stage is adaptation period. Mice move freely in the experimental device (without objects) for 10 minutes. The second stage is familiarization period. […] Within 5 min (many experiments have proven that after 2 min of familiarization period, animals already show good preference for novel objects, and of course, 3 min of familiarization makes the preference more obvious), the number of times, time, and distance the animal explores each object are measured. […] During training, the mouse is gently placed in the water from a ½ radian position of any quadrant with its head facing the pool wall, and its latency period (the time taken by the mouse to find the platform from entering the water) and path are detected as indicators to measure the mouse's learning memory and test performance. […] If the platform is not found within 90 s, the system automatically stops recording, and the latency period is recorded as 90 s. […] The initial training period is 6 days, with daily recording of the time needed for mice to find the platform, recorded as the latency period required for mice to find the platform. […]"}},
  "note": "“Also recorded” adds a separate entry of the source. Where no end group is shown, it is not given here.",
  "data": [
    {"sequence": "YGRKKRRQRRRYILDCN [TAT-P6, YGRKKRRQRRRYILDCN]", "values": [
      {"measurement": "solubility in water", "setting": "[1]", "value": "completely soluble; also recorded: completely dissolved in water"}
    ]},
    {"sequence": "YGRKKRRQRRRCNDILY [TAT-S6]", "values": [
      {"measurement": "GluA2 detected by anti-GluA2 antibody in anti-GFP (Syn2b) precipitate; interaction between Syn2b and GluA2", "setting": "[2]", "value": "could be clearly detected"},
      {"measurement": "movement ability of mice", "setting": "[3]", "value": "did not change the movement ability"},
      {"measurement": "time spent at the new object", "setting": "[4]", "value": "spent less time at the new object"},
      {"measurement": "latency to reach the platform in the water maze", "setting": "[5]", "value": "prolonged latency to reach the platform"},
      {"measurement": "number of times crossing the platform position in the water maze", "setting": "[5]", "value": "crossed the platform significantly fewer times"},
      {"measurement": "time spent in the target quadrant in the water maze", "setting": "[5]", "value": "spent significantly less time in the target quadrant"}
    ]}
  ]
}
